From patent US12492169B2, “Aminopyridine compound and application thereof” (priority 2020, dated 2025) come the findings set out here.

Molecules are shown by their SMILES. ≈ marks a conversion by molar mass, not a printed value.

Data set [1] relates to Aspergillus fumigatus ATCC-MYA-4609. Kind of data set: Minimum effective concentration (MEC) test against fungi. Type of data set: cell-based. To be noted: change of hyphae morphology by microscope, 48 hours, three independent experiments. The procedure: (§1) To test the minimum inhibitory concentration (MIC) and minimum effective concentration (MEC) of the drug against fungi.
(§2) Aspergillus fumigatus ATCC-MYA-4609; Aspergillus flavus ATCC MYA-1004
(§3) Test medium: RPMI1640 (containing 0.165 M MOPS, pH7.0)
(§4) On the day of the experiment, the compound in the bottle was dissolved in 100% DMSO to a stock solution concentration of 6.24 mg/mL. Then, the mixture was 10-fold diluted with DMSO to 0.624 mg/mL for use.
(§5) A 2-fold gradient dilution of the compound solution (0.624 mg/mL) was performed using DMSO on a 96-microwell plate (V-bottom) to obtain 100× working solutions (wells 1 to 11). 624, 312, 156, 78, 39, 20, 10, 5, 2.5, 1.25, 0.625 μg/mL. 100% DMSO was used as a positive control (well 12). This was the compound stock plate.
(§6) Aspergillus fumigatus ATCC-MYA-4609; Aspergillus flavus ATCC MYA-1004 frozen at −80° C. were streaked on SDA plates and incubated aerobically in a 30±2° C. incubator for 6 days.
(§7) For strains Aspergillus fumigatus ATCC MYA-4609; Aspergillus flavus ATCC MYA-1004, after taking out the plate, 3 mL of 0.9% normal saline containing 0.1% Tween20 was added to the plate and the spores were gently collected. The spores were counted with a hemocytometer and the spore suspension was adjusted to about 5×10^6 spores/mL. Then the spore suspension was diluted to 0.8 to 1×10^5 spores/mL with a test medium.
(§8) 2 μL of 100× working solution from the compound stock plate (prepared in 3.1) was transferred to a round-bottomed 96-well plate (containing 98 μL of test medium), and then 100 μL of fungus inoculum (prepared in 3.2) was added to each well to obtain a MIC test plate. Therefore, the final test concentrations of the compounds were 6.24, 3.12, 1.56, 0.78, 0.39, 0.20, 0.10, 0.05, 0.025, 0.0125, 0.006 μg/mL. 1% DMSO was used as a growth control.
(§9) For mold strains Aspergillus fumigatus ATCC-MYA-4609 and Aspergillus flavus ATCC MYA-1004, all test plates were incubated aerobically in a 35±° C. incubator for 48 hours.
(§10) After incubation, according to the criteria in Table 1 below, the test plate was observed by eye or microscope to determine the MIC (g/mL) and MEC (g/mL) of the test compound against yeast and mold.

Data set [2] relates to Aspergillus flavus ATCC MYA-1004. The description is as above. To be noted: change of hyphae morphology by microscope, 48 hours, three independent experiments. Type of data set: cell-based. How it is done:
as §1, §2, §3, §4, §5, §6, §7, §8, §9, §10

In data set [3] the test system is Candida parapsilosis ATCC 22019. Kind of data set: Minimum inhibitory concentration (MIC) test against fungi. It counts as cell-based. Particulars: Lodderomyces parapsilosis, ATCC22019, 24 h, ≥50% growth inhibition by eye, three independent experiments (1st, 2nd, 3rd time), read-out: MIC. How it is done: as §1
(§11) Experimental strains: Candida parapsilosis ATCC 22019; Candida albicans ATCC MYA-2876; Candida albicans WX-CA009; Candida glabrata ATCC15126; Candida tropicalis ATCC 750;
as §3, §4, §5
(§12) Candida parapsilosis ATCC 22019 and Candida albicans ATCC MYA-2876; Candida albicans WX-CA009; Candida glabrata ATCC15126; Candida tropicalis ATCC 750 frozen at −80° C. were streaked on SDA plates and incubated aerobically in a 35±2° C. incubator for 24 hours.
(§13) On the day of the experiment, for strains Candida parapsilosis ATCC 22019, Candida albicans ATCC MYA-2876; Candida albicans WX-CA009; Candida glabrata ATCC15126; Candida tropicalis ATCC 750 and Cryptococcus neoformans H99 ATCC 208821, the plates were taken out and the clones on the plates were picked, suspended in normal saline, and then the turbidity of the fungal suspension was adjusted to OD600=0.2 using a turbidimeter. The fungal suspension contained about 3.0×10^6 CFU/mL. Then the turbidity-adjusted fungal suspension was diluted with a test medium to a concentration of about 3.0×10^3 CFU/mL. This was the inoculum.
as §8
(§14) For strains Candida parapsilosis ATCC 22019; Candida albicans ATCC MYA-2876; Candida albicans WX-CA009; Candida glabrata ATCC15126; Candida tropicalis ATCC 750, all test plates were incubated aerobically in a 35±2° C. incubator for 24 hours.
as §10

Data set [4] has as its system Candida glabrata ATCC15126. The description is as above. Type of data set: cell-based. To be noted: Nakaseomyces glabratus, ATCC15126, 24 h, ≥50% growth inhibition by eye, three independent experiments, read-out: MIC. How it is done:
as §1, §11, §3, §4, §5, §12, §13, §8, §14, §10

The subject of data set [5] is Candida albicans WX-CA009. The data set is described as above. It counts as cell-based. To be noted: Candida albicans, WXCA009, 24 h, ≥50% growth inhibition by eye, three independent experiments, read-out: MIC. How it is done:
as §1, §11, §3, §4, §5, §12, §13, §8, §14, §10

In data set [6] the test system is Candida albicans ATCC MYA-2876. The data set is described as above. Particulars: Candida albicans, 24 h, ≥50% growth inhibition by eye, three independent experiments, read-out: MIC. Type of data set: cell-based. The procedure: as §1, §11, §3, §4, §5, §12, §13, §8, §14, §10
The subject of data set [7] is Candida tropicalis ATCC 750. The description is as above. It counts as cell-based. Particulars: Candida tropicalis, ATCC750, 24 h, ≥50% growth inhibition by eye, three independent experiments, read-out: MIC. The procedure:
as §1, §11, §3, §4, §5, §12, §13, §8, §14, §10

The nature of data set [8]: Mouse pharmacokinetic evaluation, intraperitoneal injection after oral ABT. It counts as in vivo. Particulars: ip, female CD-1 mice, 6 mpk, ABT 50 mg/kg orally 2 hours before, plasma; for AUC: read-out: Concentration Integral AUC; for Cmax: read-out: Peak Concentration Cmax; for Tmax: read-out: Peak Time Tmax. An excerpt: Experimental Purpose: Using female CD-1 mice as test animals, LC/MS/MS was used to measure the plasma drug concentration at different times after intraperitoneal injection of the test compound. To study the pharmacokinetic behavior of the test compound in mice and evaluate its pharmacokinetic characteristics. Drug preparation: An appropriate amount of sample was weighed and then prepared into a clear or suspended solution. Administration scheme: Two healthy female CD-1 mice were taken, purchased from Beijing Vital River Laboratory Animal Technology Co., Ltd., and given a normal diet. The drug was administered through intraperitoneal injection. Operational steps: 2 hours before administration, 1-aminobenzotriazole (ABT) was orally administered (50 mg/kg, 5 mg/mL in normal saline), and after animal administration, about 30 μL of blood was collected at 0.083, 0.25, 0.5, 1, 2, 4, 8, and 24 hours, and placed in commercially available anticoagulant tubes pre-added with EDTA-K2. The tubes were centrifuged for 10 minutes to separate the plasma, and the plasma was stored at −60° C. The content of the target compound in the plasma sample was determined by LC/MS/MS method, and the experimental results are shown in Table 3.

In data set [9] the test system is Cryptococcus neoformans H99 ATCC 208821. Kind of data set: Minimum inhibitory concentration (MIC) test against fungi. It counts as cell-based. To be noted: Cryptococcus neoformans, ATCC208821, 72 h, ≥50% growth inhibition by eye, three independent experiments, read-out: MIC. How it is done:
as §1
Cryptococcus neoformans H99 ATCC 208821;
as §3, §4, §5
Cryptococcus neoformans H99 ATCC 208821 frozen at −80° C. was streaked on SDA plates and incubated aerobically in a 35±2° C. incubator for 48 hours.
as §13, §8
For Cryptococcus neoformans H99 ATCC 208821, all test plates were incubated aerobically in a 35±2° C. incubator for 72 hours.
as §10

Data set [10] is described as follows: in vivo. Set-up: species or system crab-eating macaques. An excerpt: (§15) Experimental Purpose: To evaluate the druggability of the compounds by measuring its pharmacokinetic properties in different animal species.
(§16) Experimental materials: CD-1 mice, Sprague-Dawley strain rats, beagle dogs, and crab-eating macaques.
(§17) Drug preparation: An appropriate amount of sample was weighed and then prepared into a clear or suspended solution.
(§18) Experimental procedure: The animal pharmacokinetic characteristics after intravenous injection and oral administration of the compound were tested using a standard protocol. The candidate compound was prepared as a clear solution (for intravenous injection) or a homogeneous suspension (for oral administration) during the experiment and administered to the animals as a single dose. Whole blood samples were collected at 0.083, 0.25, 0.5, 1, 2, 4, 8, and 24 hours, centrifuged at 3200 g for 10 minutes to separate the supernatant to obtain plasma samples. The plasma concentration was quantitatively analyzed by LC-MS/MS analysis method and pharmacokinetic parameters were calculated, such as peak concentration, peak time, clearance rate, half-life, area under the drug-time curve, etc.

A short description of data set [11]: Pharmacokinetic evaluation in dogs (IV, PO). Type of data set: in vivo, beagle dogs. To be noted: dog plasma.
Source text: as §15, §16, §17, §18

The nature of data set [12]: Pharmacokinetic evaluation in rats (IV, PO). To be noted: rat plasma. It counts as in vivo, Sprague-Dawley strain rats.
Source text: as §15, §16, §17, §18

For the compound `Cc1cc(C#CCc2ccc(COc3ccccn3)cc2)cnc1N` [WX007], the MEC in data set [1] and in data set [2] was 0.39 µg/mL each time. Moreover, the MIC (usually the lowest concentration that inhibits growth of the organism) turned out to be 0.1 µg/mL (≈ 0.304 µM) in data set [3]; 0.78 µg/mL (≈ 2.37 µM) in data set [4]; 0.05 µg/mL (≈ 0.152 µM) in [5]; 0.1 µg/mL (≈ 0.304 µM) in [6]; 0.05 µg/mL (≈ 0.152 µM) in [7]; 1.56 µg/mL (≈ 4.74 µM) in [9]. The AUC in data set [8] was determined as 64 µM·h. Moreover, in data set [8], the Cmax amounted to 4.7 µM. Moreover, in data set [8], the Tmax (usually the time from dosing to the highest level) turned out to be 1.5 h.

With `Nc1ncc(C#CCc2ccc(COc3ccccn3)cc2)cc1F` [WX008], the results for the MEC in [1] and in [2] were 1.56 µg/mL and 0.39 µg/mL, respectively. The minimum inhibitory concentration (MIC) in data set [3] amounted to 0.05 µg/mL (≈ 0.15 µM); in data set [4] it was 0.78 µg/mL (≈ 2.34 µM); in data set [5] it was 0.05 µg/mL (≈ 0.15 µM); in data set [6], 0.05 µg/mL (≈ 0.15 µM); in data set [7], 0.05 µg/mL (≈ 0.15 µM); in data set [9], 3.12 µg/mL (≈ 9.36 µM). In addition, the AUC in [8] is 75 µM·h. Further, the Cmax in data set [8] worked out at 4.7 µM. The Tmax in [8] was determined as 4.3 h.

On to `Nc1ccc(C#CCc2ccc(COc3ccccn3)cc2)c[n+]1COP(=O)(O)O` [WX013], for which the “time to complete decomposition into the parent drug WX004” value is ≤ 0.5 h in data set [10] (crab-eating macaque, crab-eating macaque (monkey)); ≤ 0.5 h in [11]; ≤ 0.5 h in data set [12]. In [10] (monkey, po, 13.5 mg/kg), this compound displayed a F % of 89%.
